Test results reported in US10913712B2, “Tetracycline compounds” (Tetraphase Pharmaceuticals, Inc., priority 2012, dated 2021).
≈ marks a conversion by molar mass, not a printed value. Like-named read-outs stand apart in the source and are kept apart here.

Tests used:
[1] = test system: Klebsiella pneumoniae KP153 (tet(A), MDR, ESBL+)
PA 689 = assay: MIC assay; assay type: cell-based; conditions: read-out: MIC PA 689
[2] = test system: Klebsiella pneumoniae KP109 (ATCC 13883); assay: MIC assay; assay type: cell-based
PA 884 35151 = assay: MIC assay; assay type: cell-based; conditions: read-out: MIC PA 884 35151
[3] = test system: Klebsiella pneumoniae KP457 (2009 ESBL+, CTX-M, OXA)
[4] = test system: Staphylococcus aureus SA161 (HA-MRSA, tet(M)); assay: MIC assay; assay type: cell-based
[5] = test system: Enterococcus faecium EF404 (blood isolate, tet(M)); assay: MIC assay; assay type: cell-based; conditions: read-out: MIC EF 404 tetM, control compounds
[6] = test system: Escherichia coli EC107 (ATCC 25922); assay: MIC assay; assay type: cell-based; conditions: ATCC25922, read-out: MIC EC 107 25922, control compounds
[7] = test system: Streptococcus pneumoniae SP160 (tet(M)); assay: MIC assay; assay type: cell-based
[8] = test system: Klebsiella pneumoniae KP153 (tet(A), MDR, ESBL+); assay: microbe, parasite or virus in culture; conditions: read-out: MIC KP153 tetA

| SMILES | MIC KP 153 tetA ([1]; Table 5, control compounds) | MIC (PA 689) | MIC ([2]; ATCC13883, read-out: MIC KP109 13883) | MIC (PA 884 35151) | MIC KP 457 CTX-M-15 ([3]; Table 6, control compounds) | MIC KP 457 CTX-M-15 ([3]; Table 7, control compounds) | MIC ([4]; Staphylococcus aureus, MRSA, read-out: MIC SA 161 tetM, control compounds) | MIC [5] | MIC [6] | MIC ([7]; read-out: MIC SP 160 tetM, Table 5, control compounds) | MIC ([7]; read-out: MIC SP 160 tetM, control compounds) | MIC KP 457 CTX-M-15 [3] | MIC [8] | MIC KP 153 tetA [1] | MIC (PA 689; Table 6, control compounds) | MIC ([2]; ATCC13883, Table 4, control compounds, read-out: MIC KP109 13883) | MIC (PA 884 35151; Table 6, control compounds) | MIC SA 161 tetM ([4]; control compounds) |
| --- | --- | --- | --- | --- | --- | --- | --- | --- | --- | --- | --- | --- | --- | --- | --- | --- | --- | --- |
| CN(C)c1cc(NC(=O)CNC(C)(C)C)c(O)c2c1C[C@H]1C[C@H]3[C@H](N(C)C)C(O)=C(C(N)=O)C(=O)[C@@]3(O)C(O)=C1C2=O [Tigecycline, tigecycline] | 1 µg/mL (≈ 1.71 µM) | 1 µg/mL (≈ 1.71 µM) | 0.125 µg/mL (≈ 0.213 µM) | 0.063 µg/mL (≈ 0.108 µM) | 1 µg/mL (≈ 1.71 µM) | 1 µg/mL (≈ 1.71 µM) | 0.1 µg/mL (≈ 0.171 µM) | 0.06 µg/mL (≈ 0.102 µM) | 0.02 µg/mL (≈ 0.0341 µM) | 0.2 µg/mL (≈ 0.341 µM) | 0.03 µg/mL (≈ 0.0512 µM) | – | – | – | – | – | – | – |
| CN(C)[C@@H]1C(O)=C(C(N)=O)C(=O)[C@@]2(O)C(O)=C3C(=O)c4c(O)cccc4C[C@H]3C[C@@H]12 [Sancycline, sancycline] | 32 µg/mL (≈ 77.2 µM) | 16 µg/mL (≈ 38.6 µM) | – | 4 µg/mL (≈ 9.65 µM) | – | – | – | – | – | – | – | 8 µg/mL (≈ 19.3 µM) | 32 µg/mL (≈ 77.2 µM) | – | – | – | – | – |
| CN(C)c1ccc(O)c2c1C[C@H]1C[C@H]3[C@H](N(C)C)C(O)=C(C(N)=O)C(=O)[C@@]3(O)C(O)=C1C2=O [Minocycline, minocycline] | – | – | – | – | – | – | – | – | – | – | – | 8 µg/mL (≈ 17.5 µM) | 8 µg/mL (≈ 17.5 µM) | 8 µg/mL (≈ 17.5 µM) | 8 µg/mL (≈ 17.5 µM) | 1 µg/mL (≈ 2.19 µM) | 1 µg/mL (≈ 2.19 µM) | 8 µg/mL (≈ 17.5 µM) |
